Results on two molecules are retold here after patent publication US11413281B2, “Ternary conjugate of antitumor drug, and synthesis and application” (priority 2016, dated 2022).

For orientation: IC50 means the point on the concentration scale where inhibition reaches its midpoint.

Data set [1] has as its system human colon cancer cells (HCT116). Put plainly: In vitro anti-tumor activity, MTT assay, HCT116. In kind it is cell-based. The conditions noted are these: HCT-116, 48 h, read-out: HCT116 (IC50, μM). As to the method: Preparation of DMEM/F-12 culture broth: HyClone MEM/F-12 medium, 500 mL per bottle, add 10% fetal bovine serum and 1% solution of penicillin, stored in a refrigerator at 4° C.
(§1) Preparation of MTT solution: MTT dry powder 0.5 g was dissolved in 100 mL PBS buffer, filtered and sterilized with a […] filter, and placed in a refrigerator at −12° C. for storage.
(§2) Three types of tumor cells used in the assay for antitumor activity are human hepatoma cells (HepG2), leukemia cells (K562) and human colon cancer cells (HCT116).
Human colon cancer cell HCT116 test
The culture fluid used for HCT116 cells was a DMEM/F-12 cell culture solution containing 1% penicillin-streptomycin solution, 10% fetal bovine serum. Specific steps:
The cells were counted using a hemocytometer and diluted with DMEM/F-12 medium to 5×10^4 cells/mL.
(§3) Add 100 μL of cell suspension to each well of a 96-well plate, mix, incubated at 37° C. for 24 h.
(§4) The desired test compounds were diluted to 5 concentrations: 2 mM, 0.2 mM, 20 μM, 2 μM, 0.2 μM, and 0.5 μL/well was sequentially added according to the concentration, incubated at 37° C. for 48 h.
(§5) MTT was added at a concentration of 5 mg/mL, incubated at 37° C. for 4 h.
Cells were lysed by addition of DMSO, and the OD values at 490 nm and 630 nm were measured with a microplate reader.
(§6) Processing data, calculate IC50 value according to OD value.
For orientation: Formazan colour is commonly taken as a measure of viable cells.

Data set [2] concerns leukemia cells (K562). Put plainly: In vitro anti-tumor activity, MTT assay, K562. In kind it is cell-based. Particulars: Homo sapiens, K562, 48 h, read-out: K562 (IC50, μM). The protocol:
as §1, §2
K562 cells were cultured in RPMI1640 cell culture medium containing 1% penicillin-streptomycin solution, 10% fetal bovine serum, and incubated at 37° C. in a constant temperature incubator containing 5% CO2. Specific steps:
The cells were counted using a hemocytometer and diluted to 5×10^4 cells/mL with RPMI medium;
100 μL of cell suspension was added to each well of a 96-well plate, incubated at 37° C. for 2 h.
as §4
MTT was added at a concentration of 5 mg/mL, incubated at 37° C. for 4 hours.
Isopropanol and hydrochloric acid lysis were added, and the OD values at 570 nm and 630 nm were measured with a microplate reader.
as §6

For data set [3], the system named is human hepatoma cells (HepG2). Put plainly: In vitro anti-tumor activity, MTT assay, HepG2. The data set is classed as cell-based. Particulars: HepG2, 48 h, read-out: HepG2 (IC50, μM). As to the method: Formulation of DMEM low glucose medium: HyClone MEM low glucose medium, 500 mL per bottle, add 10% fetal bovine serum and 1% solution of penicillin, stored in a refrigerator at 4° C.
as §1, §2
Human Hepatocarcinoma Cell (HepG2) Test
The culture medium for HepG2 cells was DMEM cell culture medium containing 1% penicillin-streptomycin solution and 10% fetal bovine serum, and the culture condition was 37° C. and a constant temperature incubator containing 5% CO2. Specific steps:
The cells were counted using a hemocytometer and diluted with DMEM low glucose to 5×10^4 cells/mL.
as §3, §4, §5
Cells were lysed by addition of DMSO, and the OD values at 490 nm and 630 nm were measured with a microplate reader. […]

Data set [4] can be described thus: Self-assembly in aqueous solution (proton NMR in DMSO-d6 vs D2O). The data set is classed as physicochemical. The conditions noted are these: HCPT NMR signals disappear in D2O. From the text:
The micelles enclose the hydrophobic structure inside. […] This phenomenon also exists in the conjugate of PEG and HCPT, and it is confirmed by dynamic light scattering and transmission electron microscopy, which showing it can form nanospheres or nanorods with about 200 nm diameter.

Data set [5] relates to E-selectin mediated adhesion of THP-I to HUVECs. Put plainly: Adhesion test of human acute monocytic leukemia cells and endothelial cells. Particulars: THP-I on TNF-α stimulated HUVECs, FIG. 4. In kind it is cell-based. As to the method:
Example 3. Adhesion Test of Compounds Against Human Acute Monocytic Leukemia Cells and Endothelial Cells
Endothelial cell line HUVEC and human acute monocytic leukemia cell line THP-I were purchased from ATCC and cultured at 37° C. in a 5% CO2 saturated humidity medium, which contains 10% fetal bovine serum, RPMI 1640 with 100 μg/mL penicillin and F-12 with 100 μg/mL streptomycin, the cells were used at logarithmic growth phase.
Polylysine (20 μg/ml) (Shanghai Yuanye Biotechnology Co., Ltd.) was coated on a black 96-well cell culture plate (Corning Incorporated costar 3603) and incubated at 37° C. for 12 h. Endothelial cells HUVECs were seeded at a concentration of […] in black 96-well cell culture plates. After incubation at 37° C. for 36 h, the medium in the cell culture plates was removed. The experimental group was added with F-12 medium with 20 ng/ml TNF-α, F-12 medium without TNF-α was added to the control group, all the groups were incubated for 6 h at 37° C. […] 100 μl permeation solution (BIOSHARP) was added to each well and fluorescence was measured with a Synergy 4 Multiplate Reader (Biotek) (Ex, 485 nm; Em, 528 nm). The inhibitory effect of the candidate compound is inversely proportional to the fluorescence intensity, and the lower the fluorescence value, the stronger the inhibition effect of the compound.

Where no end group is shown, it is not given here.

Take `CC[C@@]1(O)C(=O)OCc2c1cc1n(c2=O)Cc2cc3cc(O)ccc3nc2-1` [HCPT, 10-hydroxycamptothecin]: the IC50 in data set [1], in data set [2] and in data set [3] was below 1 µM throughout.
“Compound 9 (CIELLQAR-OH; also: Cys1 connects to remainder of compound 9 through SH and amino group)”: the “self-assembly in aqueous solution” value in data set [4] is recorded as “self-assembled into nano-micelles”. Moreover, the “anti-E-selectin mediated cell adhesion in vitro” value in data set [5] was “significant anti-E-selectin mediated cell adhesion”.
